One experiment deals with HL-60-R8 cells. As to the kind of experiment: Nucleoside transport in HL-60-R8 cells. The experiment is classed as cell-based, human. To be noted: 15-min preincubation, 30 s. From the text:
FIG. 15. Comparison of the concentration-dependent inhibitions of the cellular transport of purine (A) and pyrimidine (B) nucleosides by DAU (open symbols) and TT2 (closed symbols) in HL-60-S (circles), HL-60-RV (squares) and HL-60-R8 (triangles) cells in vitro. Results are expressed as % of ^3H-adenosine (26,032±2,239 cpm, 100±9%, striped area in A) and ^3H-thymidine (17,934±1,398 cpm, 100±8%, striped area in B) transported into vehicle-treated control cells over 30 s.
The MDR HL-60-RV and HL-60-R8 cells were developed in Melvin S. Center's laboratory (Kansas State University) and similarly maintained in RPMI 1640 medium in the absence of drugs (Marsh W, et al, Cancer Res 46: 4053-4057, 1986; McGrath T et al, and Center M S: Biochem Biophys Res Commun 145: 1171-1176, 1987; Marsh W and Center M S: Cancer Res 47: 5080-5086, 1987; McGrath T, et al, Biochem Pharmacol 38: 3611-3619, 1989; Marquardt D, et al, Cancer Res 50: 1426-1430, 1990; Marquardt D and Center M S: J Natl Cancer Inst 83: 1089-1109, 1991; Krishnamachary N and Center M S; Cancer Res 53: 3658-3661, 1993). Every 4 weeks, these HL-60-RV and HL-60-R8 sublines were exposed to 41 nM DAU for 48 h to stabilize their MDR phenotype. […] RFs were determined by dividing the IC50 of the MDR cells by that of the sensitive WT parent cell line. […]

In experiment [1] the target is Malaria protease plasmepsin II (Plasmodium falciparum, UniProt P46925). As to the kind of experiment: Inhibition of malaria protease plasmepsin II. The experiment is classed as biochemical.
Sequence of Malaria protease plasmepsin II (P46925 125-453): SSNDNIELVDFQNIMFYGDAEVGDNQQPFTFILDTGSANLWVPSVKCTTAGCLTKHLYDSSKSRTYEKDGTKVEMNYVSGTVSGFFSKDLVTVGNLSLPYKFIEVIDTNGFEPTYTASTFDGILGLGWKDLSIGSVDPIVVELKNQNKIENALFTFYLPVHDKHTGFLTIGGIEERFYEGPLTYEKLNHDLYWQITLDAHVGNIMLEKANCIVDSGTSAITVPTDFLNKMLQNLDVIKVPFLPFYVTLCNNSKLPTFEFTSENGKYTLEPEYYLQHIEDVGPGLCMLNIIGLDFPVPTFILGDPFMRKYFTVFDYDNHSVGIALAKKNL

Two molecules from patent US6828450B2, “Triptycene analogs” (Kansas State University Research Foundation, priority 2000, dated 2004) can be followed below.

The term IC50 denotes the concentration needed to halve the response being measured.

Read-outs that look alike come from different tables or passages of the source.

Turning to `COC1=CC(=O)C2=C(C1=O)C1C3=C(C(=O)C=CC3=O)C2c2ccccc21` (stereo not drawn) [TT2, 2-Methoxy-9,10-dihydro-9,10-[1′,2′]benzenoanthracene-1,4,5,8-tetraone], the half-inhibitory concentration (IC50) in the experiment on HL-60-R8 cells (purine nucleoside, read-out: IC50, cellular transport of 3H-adenosine in HL-60-R8 cells) amounted to 3.7 µM; in the experiment with HL-60-R8 cells (pyrimidine nucleoside, read-out: IC50, cellular transport of 3H-thymidine in HL-60-R8 cells) it was 2.3 µM. On to `COC1=C(Br)C(=O)C2=C(C1=O)C1C3=C(C(=O)C=C(N(C)C)C3=O)C2c2ccccc21` (stereo not drawn) [TT16, 2-Bromo-3-methoxy-6-(dimethylamino)-9,10-dihydro-9,10-[1′,2′]benzenoanthracene-1,4,5,8-tetraone], for which the half-maximal inhibitory concentration (IC50) in experiment [1] amounted to 23.6 µM.
